Test results from patent US20140072662A1, “Andrographis Paniculata Compositions and Methods for Treatment of Addictions” (Omeros Corporation, priority 2012, published 2014).
“Also recorded” adds a separate entry of the source. Where two headings read alike, the source gives them in different places.

Key:
PPARγ [1] = molecular target: T1, PPARγ (Homo sapiens, UniProt P37231); conditions: cited from earlier work
T1 sequence (P37231 1-505): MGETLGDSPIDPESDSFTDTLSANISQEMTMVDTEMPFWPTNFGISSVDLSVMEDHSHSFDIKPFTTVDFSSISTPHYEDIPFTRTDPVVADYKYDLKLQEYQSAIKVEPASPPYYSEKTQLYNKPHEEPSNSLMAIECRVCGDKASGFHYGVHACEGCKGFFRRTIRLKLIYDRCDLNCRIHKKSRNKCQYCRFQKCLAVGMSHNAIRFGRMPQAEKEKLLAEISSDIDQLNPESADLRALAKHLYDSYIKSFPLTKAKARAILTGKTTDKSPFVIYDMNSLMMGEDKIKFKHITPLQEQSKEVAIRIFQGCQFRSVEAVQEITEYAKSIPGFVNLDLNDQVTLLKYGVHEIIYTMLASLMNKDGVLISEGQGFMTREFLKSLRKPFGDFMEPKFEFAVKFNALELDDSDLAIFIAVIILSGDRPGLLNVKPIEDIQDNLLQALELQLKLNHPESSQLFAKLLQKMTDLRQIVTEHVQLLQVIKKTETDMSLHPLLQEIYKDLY

GAL-4-PPAR-gamma chimera = molecular target: T2, GAL-4-PPAR-gamma chimera (Homo sapiens, UniProt P37231); conditions: compounds isolated from EtOH extract of licorice; cited from earlier work
T2 construct: GAL-4 (fusion partner of the chimera)
T2 sequence (P37231 with tags, fused parts or gaps limits assumed): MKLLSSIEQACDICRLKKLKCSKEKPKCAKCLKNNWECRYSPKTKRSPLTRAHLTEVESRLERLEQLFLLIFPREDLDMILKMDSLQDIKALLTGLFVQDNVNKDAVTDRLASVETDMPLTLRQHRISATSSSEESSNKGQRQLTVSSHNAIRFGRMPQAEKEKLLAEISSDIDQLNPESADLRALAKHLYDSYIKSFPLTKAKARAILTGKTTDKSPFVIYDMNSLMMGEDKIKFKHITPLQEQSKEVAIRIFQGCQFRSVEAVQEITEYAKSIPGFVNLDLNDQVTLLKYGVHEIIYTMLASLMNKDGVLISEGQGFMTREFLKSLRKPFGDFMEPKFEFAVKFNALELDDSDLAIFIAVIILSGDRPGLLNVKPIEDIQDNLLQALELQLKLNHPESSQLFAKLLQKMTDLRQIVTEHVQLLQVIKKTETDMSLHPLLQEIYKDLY

PPARγ [2] = molecular target: T1, PPARγ; conditions: cited from earlier work; remark: listed apart in the source
PPARγ [3] = molecular target: T3, PPARγ (Mus musculus, UniProt P37238); conditions: 3T3-L1 preadipocytes; cited from earlier work
T3 construct: host or cells: 3T3-L1
T3 sequence (P37238 1-505): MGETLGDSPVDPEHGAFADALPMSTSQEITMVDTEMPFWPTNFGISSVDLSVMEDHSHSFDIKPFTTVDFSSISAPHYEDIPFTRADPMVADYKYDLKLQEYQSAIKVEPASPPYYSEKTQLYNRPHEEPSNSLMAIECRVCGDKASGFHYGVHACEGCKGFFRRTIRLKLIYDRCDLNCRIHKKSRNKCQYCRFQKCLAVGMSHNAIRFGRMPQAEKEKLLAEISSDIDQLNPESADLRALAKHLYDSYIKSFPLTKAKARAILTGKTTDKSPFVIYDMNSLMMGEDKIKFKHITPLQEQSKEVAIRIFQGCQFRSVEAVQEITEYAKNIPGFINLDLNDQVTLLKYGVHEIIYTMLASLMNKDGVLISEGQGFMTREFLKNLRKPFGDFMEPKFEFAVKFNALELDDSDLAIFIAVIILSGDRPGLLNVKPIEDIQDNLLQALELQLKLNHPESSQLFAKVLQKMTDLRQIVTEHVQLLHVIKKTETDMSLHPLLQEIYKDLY

msP rats = assay: Central PPAR antagonist GW9662 on andrographolide-induced reduction of alcohol intake in msP rats; assay type: in vivo, rat
Method: GW9662, purchased from Tocris (Bristol, UK), was dissolved in 10% DMSO and 3% Tween 80 and the final volume (5 μg/μl) was adjusted adding distilled water. GW9662 was injected ICV in a volume of 1 μl per rat by means of a stainless-steel injector 2.5 mm longer than the guide cannula, so that its tip protruded into the ventricle.
A 22-gauge guide cannula for intracerebroventricular (ICV) drug injections was stereotaxically implanted into the lateral cerebroventricle with the following coordinates: anteroposterior (AP)=1.0; lateral (L)=1.8; ventral (V)=2.0 with reference to bregma.
A widely used method for testing fluid preference is the two-bottle choice paradigm, in which water and 10% (v/v) alcohol solution were offered in graduated drinking tubes equipped with metallic drinking spouts and their consumption was measured by reading the volume consumed from the graduated tubes. Food intake was measured by weighing the food containers and taking into account spillage. Alcohol, water and food intakes are expressed as g/kg to reduce the influence of differences in body weight.
To examine whether the effect of andrographolide on alcohol intake is mediated by brain PPAR receptors, another group of msP rats (N=31) was treated ICV with 5 μg/rat of the PPAR antagonist GW9662 and then injected with andrographolide (10 mg/kg) or its vehicle. In a between-subject design each group of animals (N=7-8/group) received a different drug dose for 6 consecutive days. GW9662 or its vehicle were administered twice daily at 12 hours and 30 minutes before the beginning of the dark period of the light-dark cycle. Andrographolide was given immediately after GW9662 administrations.
Alcohol, water, and food intake was recorded at 0.5, 2, 8 and 24 hours from the moment that alcohol was made available.

PPAR α = molecular target: T4, PPAR α (Mus musculus, UniProt P23204); conditions: 3T3-L1 cells; cited from earlier work
T4 construct: host or cells: 3T3-L1
T4 sequence (P23204 1-468): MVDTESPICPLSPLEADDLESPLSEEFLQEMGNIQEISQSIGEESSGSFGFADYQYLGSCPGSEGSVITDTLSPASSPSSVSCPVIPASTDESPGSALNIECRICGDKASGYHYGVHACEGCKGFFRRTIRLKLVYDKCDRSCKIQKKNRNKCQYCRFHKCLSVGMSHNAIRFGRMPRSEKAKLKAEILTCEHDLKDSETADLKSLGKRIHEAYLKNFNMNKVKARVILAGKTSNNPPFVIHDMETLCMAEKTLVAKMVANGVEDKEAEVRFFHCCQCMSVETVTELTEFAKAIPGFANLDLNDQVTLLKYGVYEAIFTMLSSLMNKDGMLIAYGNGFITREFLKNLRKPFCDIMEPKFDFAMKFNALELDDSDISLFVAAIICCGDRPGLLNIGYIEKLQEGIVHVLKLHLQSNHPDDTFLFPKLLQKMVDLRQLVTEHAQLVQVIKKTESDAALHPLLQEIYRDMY

PPARγ [4] = molecular target: T3, PPARγ; conditions: 3T3-L1 cells; cited from earlier work
[5] = molecular target: T5, PPAR δ ligand binding domain (Homo sapiens, UniProt Q03181); conditions: cited from earlier work
T5 sequence (Q03181 211-439 limits assumed): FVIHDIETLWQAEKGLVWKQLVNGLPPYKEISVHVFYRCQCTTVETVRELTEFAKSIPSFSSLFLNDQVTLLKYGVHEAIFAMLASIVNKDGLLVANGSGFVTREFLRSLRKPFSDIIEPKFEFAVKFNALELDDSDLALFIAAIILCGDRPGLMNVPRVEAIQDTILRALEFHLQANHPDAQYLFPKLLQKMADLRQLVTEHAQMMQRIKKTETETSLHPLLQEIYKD

[6] = molecular target: PPAR γ ligand binding domain (Homo sapiens, UniProt P37231); conditions: cited from earlier work

Compound | PPAR-gamma ligand-binding activity (GAL-4-PPAR-gamma chimera) | other results
CC(C)=CCC/C(C)=C/CO [geraniol] | – | activation of PPARγ (PPARγ [1]): activate PPARγ
CC1(C)C=Cc2c(ccc(-c3coc4cc(O)ccc4c3=O)c2O)O1 [glabrone] | significant PPAR-gamma ligand-binding activity | –
CC1(C)C=Cc2c(ccc3c2OC[C@H]2c4ccc(O)cc4O[C@@H]32)O1 [shinpterocarpin] | significant PPAR-gamma ligand-binding activity | –
O=c1c(-c2ccc(O)cc2)coc2cc(O)cc(O)c12 [genistein] | – | activation of PPARγ (PPARγ [2]): potent activators of PPARγ
COc1cc(O)ccc1/C=C/C(=O)c1ccc(O)cc1 [echinatin] | significant PPAR-gamma ligand-binding activity | –
CC(C)=CCc1c(O)ccc([C@@H]2COc3c(ccc(O)c3CC=C(C)C)C2)c1O [kanzonol X] | significant PPAR-gamma ligand-binding activity | –
CC1=CC(=O)CC(C)(C)[C@@]1(O)/C=C/C(C)=C\C(=O)O [abscisic acid] | – | activity of PPARγ (PPARγ [3]): increase the activity of PPARγ
O=C(Nc1ccccc1)c1cc([N+](=O)[O-])ccc1Cl [GW9662] | – | alcohol drinking (msP rats; GW9662 5 μg/rat ICV alone, twice daily, 6 days, p>0.05): no similar effect; blockade of the andrographolide effect on alcohol drinking (msP rats; GW9662 5 μg/rat ICV given before andrographolide 10 mg/kg): blocked the effect of andrographolide at 8 and 24 hours starting from the third day of treatment; also recorded: completely prevents the andrographolide effect on alcohol drinking
CC(C)=CCc1cc([C@@H]2CC(=O)c3ccc4c(c3O2)C=CC(C)(C)O4)ccc1O [shinflavanone] | significant PPAR-gamma ligand-binding activity | –
CC(C)=CCC/C(C)=C\CO [nerol] | – | activation of PPARγ (PPARγ [1]): not
CC1(C)C=Cc2c(ccc3c2OC[C@@H](c2cc(C=O)c(O)cc2O)C3)O1 [5′-formylglabridin] | significant PPAR-gamma ligand-binding activity | –
CC(C)=CCCC(C)CCO (stereo not drawn) [Citronellol, citronellol] | – | activation of PPARγ (PPARγ [1]): activate PPARγ
CCCC\C=C/C=C/C=C\CCCCCCCC(=O)O [PUA, punicic acid] | – | PPAR α reporter activity (PPAR α): dose-dependent increase; PPAR γ reporter activity (PPARγ [4]): dose-dependent increase; binding to PPAR δ ligand binding domain [5]: bind; binding to PPAR γ ligand binding domain [6]: bind
COc1ccc(-c2coc3cc(O)cc(O)c3c2=O)cc1 [biochanin A] | – | activation of PPARγ (PPARγ [2]): potent activators of PPARγ
licoflavanone A | significant PPAR-gamma ligand-binding activity | –
COc1ccc([C@@H]2COc3cc(O)ccc3C2)c(O)c1O [(3R)-2′,3′,7-trihydroxy-4′-methoxyisoflavan] | significant PPAR-gamma ligand-binding activity | –
CC(C)=CCc1cc([C@@H]2CC(=O)c3ccc(O)c(CC=C(C)C)c3O2)ccc1O [glabrol] | significant PPAR-gamma ligand-binding activity | –
CC(C)=CCc1c(O)cc(O)c2c(=O)c(-c3ccc(O)c(O)c3)coc12 [gancaonin L] | significant PPAR-gamma ligand-binding activity | –
CC1(C)C=Cc2c(ccc3cc(-c4ccc(O)cc4O)c(=O)oc23)O1 [kanzonol W] | significant PPAR-gamma ligand-binding activity | –
CC(C)=CCc1cc([C@H]2Oc3cc(O)ccc3C[C@H]2O)ccc1O [(2R,3R)-3,4′,7-trihydroxy-3′-prenylflavane] | significant PPAR-gamma ligand-binding activity | –
